# ± gives the expanded uncertainty stated by the source.
# Conditions: Liquid, Closed cell (Static) method
vapor or sublimation pressure (303.15 K) [kPa],vapor or sublimation pressure (313.15 K) [kPa],vapor or sublimation pressure (308.15 K) [kPa],vapor or sublimation pressure (318.15 K) [kPa],SMILES
10.43 ± 0.29,17.84 ± 0.32,–,–,CCO [ethanol]
7.933 ± 0.28,–,10.72 ± 0.29,–,CC(C)O [propan-2-ol]
4.186 ± 0.27,7.346 ± 0.27,5.493 ± 0.27,9.493 ± 0.27,O [water]

# — the NIST ThermoML archive (doi:10.1021/je100624p)
